Numbered stars: 1 amine (or outer) side, 2 acyl side, 3 side chain; on linkers, the order of the positions; unused ones are H or OH. Square brackets hold non-standard residues; d marks the D form. Side chains are listed from the residue outwards. Peptide text beside a SMILES is read from it. * marks the point of attachment. ξ: configuration not given here. DOTA(Lu)NH(CH2)6NHCOCH2 = O=C(CN1CCN2CCN3CCN(CC1)CC(=O)[O][Lu]([O]C(=O)C2)[O]C(=O)C3)NCCCCCCNC(=O)C*; X10 = O=C(CN1CCN2CCN3CCN(CC1)CC(=O)[O][Lu]([O]C(=O)C2)[O]C(=O)C3)NCC12CCC(C(=O)*)(CC1)CC2; X6 = O=C(CN1CCN2CCN3CCN(CC1)CC(=O)[O][Lu]([O]C(=O)C2)[O]C(=O)C3)NCCOCCOCCOCCNC(=O)C*; DOTA(Lu) = O=C1CN2CCN3CCN(CC(=O)*)CCN(CC2)CC(=O)[O][Lu]([O]1)[O]C(=O)C3; Ala(piperidin-4-yl) = O=C([C@H](CC1CCN([*:3])CC1)N[*:1])[*:2]; dTrp(βS-Me) = C[C@@H](c1c[nH]c2ccccc12)[C@@H](N)C(=O)O; dTrp(5-OMe) = COc1ccc2[nH]cc(C[C@@H](N)C(=O)O)c2c1; dNMeW = CN[C@H](Cc1c[nH]c2ccccc12)C(=O)O; Dip = N[C@H](C(=O)O)C(c1ccccc1)c1ccccc1; Lys(5ξ-OH) = NCC(O)CC[C@H](N)C(=O)O; 3Pal = N[C@@H](Cc1cccnc1)C(=O)O; 4Pal = N[C@@H](Cc1ccncc1)C(=O)O; Gly(cBu) = N[C@H](C(=O)O)C1CCC1; NMehCys = CN[C@@H](CCS)C(=O)O; Cba = N[C@@H](CC1CCC1)C(=O)O; NMeK = CN[C@@H](CCCCN)C(=O)O; NMeDap = CN[C@@H](CN)C(=O)O; NMeC = CN[C@@H](CS)C(=O)O; Ethyl(2-NH2) = NCC*
Biological target: SSTR2 (Homo sapiens, UniProt P30874)
Assay: SSTR binding affinity by radioligand binding competition assay ([125I]-Tyr11-Somatostatin, membrane extracts)
Settings: SSTR2 Ki, radioligand competition, [125I]-Tyr11-Somatostatin 0.1 nM, membrane extracts; Ki from IC50 by Cheng Prusoff

SSTR2, sequence (P30874 whole entry): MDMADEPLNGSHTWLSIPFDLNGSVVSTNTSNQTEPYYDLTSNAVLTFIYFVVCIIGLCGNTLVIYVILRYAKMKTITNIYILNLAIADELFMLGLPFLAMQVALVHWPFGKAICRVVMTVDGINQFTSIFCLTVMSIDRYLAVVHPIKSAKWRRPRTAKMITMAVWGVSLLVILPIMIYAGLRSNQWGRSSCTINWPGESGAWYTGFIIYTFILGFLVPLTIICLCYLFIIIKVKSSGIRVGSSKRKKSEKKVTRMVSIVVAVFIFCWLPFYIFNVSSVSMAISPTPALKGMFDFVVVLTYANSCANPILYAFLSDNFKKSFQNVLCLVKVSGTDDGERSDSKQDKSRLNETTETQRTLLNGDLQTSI

SMILES | Ki [nM]
C[C@H](O)[C@@H]1NC(=O)[C@H](CCCCN)NC(=O)[C@@H](Cc2c[nH]c3ccccc23)NC(=O)[C@H](Cc2ccc(O)cc2)NC(=O)[C@H](CCSCC(=O)NCCCCCCNC(=O)CN2CCN3CCN4CCN(CC2)CC(=O)[O][Lu]([O]C(=O)C3)[O]C(=O)C4)N(C)C(=O)[C@H](Cc2ccccc2)NC1=O [RB-0003464] | < 1

Same assay, conditions: radioligand competition, [125I]-Tyr11-Somatostatin 0.1 nM, membrane extracts; Ki from IC50 by Cheng Prusoff

SMILES | SSTR2 Ki
COc1ccc2[nH]cc(C[C@H]3NC(=O)[C@H](Cc4ccc(O)cc4)NC(=O)[C@H](CCSCC(=O)NCCCCCCNC(=O)CN4CCN5CCN6CCN(CC4)CC(=O)[O][Lu]([O]C(=O)C5)[O]C(=O)C6)N(C)C(=O)[C@H](Cc4ccccc4)NC(=O)[C@H]([C@@H](C)O)NC(=O)[C@H](CC4CCNCC4)NC3=O)c2c1 [RB-0006076] (cyclo(F[NMehCys](DOTA(Lu)NH(CH2)6NHCOCH2)Y[dTrp(5-OMe)][Ala(piperidin-4-yl)]T)) | FALSE

Same assay, conditions: radioligand competition, [125I]-Tyr11-Somatostatin 0.1 nM, membrane extracts; Ki from IC50 by Cheng Prusoff; read-out: SSTR2 Ki

SMILES | Ki [nM]
C[C@@H](O)[C@@H]1NC(=O)[C@H](CCCCN)NC(=O)[C@@H](Cc2c[nH]c3ccccc23)NC(=O)[C@H](Cc2ccncc2)NC(=O)[C@H](CCSCC(=O)NCCCCCCNC(=O)CN2CCN3CCN4CCN(CC2)CC(=O)[O][Lu]([O]C(=O)C3)[O]C(=O)C4)N(C)C(=O)[C@H](Cc2cccnc2)NC1=O [RB-0003445] (cyclo([3Pal][NMehCys](DOTA(Lu)NH(CH2)6NHCOCH2)[4Pal][dW]KT)) | 3.33 to 10
C[C@@H](O)[C@@H]1NC(=O)[C@H](CCCCN)NC(=O)[C@@H](Cc2c[nH]c3ccccc23)NC(=O)CNC(=O)[C@H](CCSCC(=O)NCCCCCCNC(=O)CN2CCN3CCN4CCN(CC2)CC(=O)[O][Lu]([O]C(=O)C3)[O]C(=O)C4)N(C)C(=O)[C@H](Cc2ccccc2)NC1=O [RB-0005694] (cyclo(F[NMehCys](DOTA(Lu)NH(CH2)6NHCOCH2)G[dW]KT)) | 1 to 3.33
C[C@@H](O)[C@@H]1NC(=O)[C@H](CC2CCNCC2)NC(=O)[C@@H]([C@@H](C)c2c[nH]c3ccccc23)NC(=O)[C@H](Cc2ccc(O)cc2)NC(=O)[C@H](CNC(=O)[C@H](CCC(=O)O)NC(=O)CN2CCN3CCN4CCN(CC2)CC(=O)[O][Lu]([O]C(=O)C3)[O]C(=O)C4)N(C)C(=O)[C@H](Cc2ccccc2)NC1=O [RB-0006215] (cyclo(F[NMeDap]([Glu-DOTA(Lu)])Y[dTrp(βS-Me)][Ala(piperidin-4-yl)]T)) | 10 to 33.3
C[C@@H](O)[C@@H]1NC(=O)[C@H](CCCCN)NC(=O)[C@@H](Cc2c[nH]c3ccccc23)NC(=O)[C@H](Cc2ccc(O)cc2)NC(=O)[C@H](CCSCC(=O)NCCOCCOCCOCCNC(=O)CN2CCN3CCN4CCN(CC2)CC(=O)[O][Lu]([O]C(=O)C3)[O]C(=O)C4)N(C)C(=O)CNC1=O [RB-0005286] (cyclo(G[NMehCys](X6)Y[dW]KT)) | 10 to 33.3
CO[C@H](C)[C@@H]1NC(=O)[C@H](CCCCN)NC(=O)[C@@H](Cc2c[nH]c3ccccc23)NC(=O)[C@H](Cc2ccc(O)cc2)NC(=O)[C@H](CCSCC(=O)NCCCCCCNC(=O)CN2CCN3CCN4CCN(CC2)CC(=O)[O][Lu]([O]C(=O)C3)[O]C(=O)C4)N(C)C(=O)[C@H](Cc2ccccc2)NC1=O [RB-0004619] | < 1
CC(C)[C@@H]1NC(=O)[C@H](CCCCN)NC(=O)[C@@H](Cc2c[nH]c3ccccc23)NC(=O)[C@H](C(c2ccccc2)c2ccccc2)NC(=O)[C@H](CCSCC(=O)NCCCCCCNC(=O)CN2CCN3CCN4CCN(CC2)CC(=O)[O][Lu]([O]C(=O)C3)[O]C(=O)C4)N(C)C(=O)[C@H](Cc2ccccc2)NC1=O [RB-0004613] (cyclo([Dip][dW]KVF[NMehCys](DOTA(Lu)NH(CH2)6NHCOCH2))) | < 1
CC(C)[C@@H]1NC(=O)[C@H](CCCCN)NC(=O)[C@@H]([C@@H](C)c2c[nH]c3ccccc23)NC(=O)[C@H](Cc2ccncc2)NC(=O)[C@H](CCSCC(=O)NCCCCCCNC(=O)CN2CCN3CCN4CCN(CC2)CC(=O)[O][Lu]([O]C(=O)C3)[O]C(=O)C4)N(C)C(=O)[C@H](Cc2ccccc2)NC1=O [RB-0004825] (cyclo([4Pal][dTrp(βS-Me)]KVF[NMehCys](DOTA(Lu)NH(CH2)6NHCOCH2))) | < 1
C[C@@H](O)[C@@H]1NC(=O)[C@H](CCCCN)NC(=O)[C@@H](Cc2c[nH]c3ccccc23)NC(=O)[C@H](Cc2ccc(O)cc2)NC(=O)[C@H](CNC(=O)C[C@@H](NC(=O)CCCCCNC(=O)CN2CCN3CCN4CCN(CC2)CC(=O)[O][Lu]([O]C(=O)C3)[O]C(=O)C4)C(=O)O)N(C)C(=O)[C@H](Cc2ccccc2)NC1=O [RB-0005736] | 3.33 to 10
CC(C)[C@@H]1NC(=O)[C@H](CCCCN)NC(=O)[C@@H](Cc2c[nH]c3ccccc23)NC(=O)[C@H](Cc2ccc(O)cc2)NC(=O)[C@H](CCSCC(=O)NCCCCCCNC(=O)CN2CCN3CCN4CCN(CC2)CC(=O)[O][Lu]([O]C(=O)C3)[O]C(=O)C4)N(C)C(=O)[C@H](Cc2cnc[nH]2)NC1=O [RB-0005255] (cyclo(H[NMehCys](DOTA(Lu)NH(CH2)6NHCOCH2)Y[dW]KV)) | 1 to 3.33
C[C@@H]1NC(=O)[C@H](CCSCC(=O)NCCCCCCNC(=O)CN2CCN3CCN4CCN(CC2)CC(=O)[O][Lu]([O]C(=O)C3)[O]C(=O)C4)N(C)C(=O)[C@H](Cc2ccccc2)NC(=O)[C@H]([C@@H](C)O)NC(=O)[C@H](CCCCN)NC(=O)[C@@H](Cc2c[nH]c3ccccc23)NC1=O [RB-0005696] (cyclo(A[dW]KTF[NMehCys](DOTA(Lu)NH(CH2)6NHCOCH2))) | 10 to 33.3
CN1C(=O)[C@H](Cc2ccccc2)NC(=O)[C@H](CC2CCC2)NC(=O)[C@H](CCCCN)NC(=O)[C@@H](Cc2c[nH]c3ccccc23)NC(=O)[C@H](Cc2ccc(O)cc2)NC(=O)[C@@H]1CCSCC(=O)NCCCCCCNC(=O)CN1CCN2CCN3CCN(CC1)CC(=O)[O][Lu]([O]C(=O)C2)[O]C(=O)C3 [RB-0004621] (cyclo([Cba]F[NMehCys](DOTA(Lu)NH(CH2)6NHCOCH2)Y[dW]K)) | < 1
C[C@@H](O)[C@@H]1NC(=O)[C@H](CCCCN)NC(=O)[C@@H](Cc2c[nH]c3ccccc23)NC(=O)[C@H](Cc2cccnc2)NC(=O)[C@H](CSCC(=O)NCCCCCCNC(=O)CN2CCN3CCN4CCN(CC2)CC(=O)[O][Lu]([O]C(=O)C3)[O]C(=O)C4)N(C)C(=O)[C@H](Cc2ccccc2)NC1=O [RB-0002946] (cyclo([3Pal][dW]KTF[NMeC](DOTA(Lu)NH(CH2)6NHCOCH2))) | 10 to 33.3
C[C@@H](O)[C@@H]1NC(=O)[C@H](CCCCN)NC(=O)[C@@H](Cc2c[nH]c3ccccc23)NC(=O)[C@H](Cc2ccc(O)cc2)NC(=O)[C@H](CCSCCC(=O)NCCCCCCNC(=O)CN2CCN3CCN4CCN(CC2)CC(=O)[O][Lu]([O]C(=O)C3)[O]C(=O)C4)N(C)C(=O)[C@H](Cc2ccccc2)NC1=O [RB-0003374] | < 1
C[C@@H](O)[C@@H]1NC(=O)[C@H](CCC(O)CN)NC(=O)[C@H](Cc2c[nH]c3ccccc23)NC(=O)[C@H](Cc2ccc(O)cc2)NC(=O)[C@H](CCSCC(=O)NCCCCCCNC(=O)CN2CCN3CCN4CCN(CC2)CC(=O)[O][Lu]([O]C(=O)C3)[O]C(=O)C4)N(C)C(=O)[C@H](Cc2ccccc2)NC1=O (stereo partly shown) [RB-0006385] (cyclo(F[NMehCys](DOTA(Lu)NH(CH2)6NHCOCH2)YW[Lys(5ξ-OH)]T)) | < 1
CC(C)[C@@H]1NC(=O)[C@H](CCCCN)NC(=O)[C@@H]([C@@H](C)c2c[nH]c3ccccc23)NC(=O)[C@H](Cc2ccc(O)cc2)NC(=O)[C@H](CCSCC(=O)NCCCCCCNC(=O)CN2CCN3CCN4CCN(CC2)CC(=O)[O][Lu]([O]C(=O)C3)[O]C(=O)C4)N(C)C(=O)[C@H](Cc2ccccc2)NC1=O [RB-0004609] (cyclo(F[NMehCys](DOTA(Lu)NH(CH2)6NHCOCH2)Y[dTrp(βS-Me)]KV)) | < 1
CN1C(=O)[C@H](Cc2ccccc2)NC(=O)[C@H](C2CCC2)NC(=O)[C@H](CCCCN)NC(=O)[C@@H](Cc2c[nH]c3ccccc23)NC(=O)[C@H](Cc2ccc(O)cc2)NC(=O)[C@@H]1CCSCC(=O)NCCCCCCNC(=O)CN1CCN2CCN3CCN(CC1)CC(=O)[O][Lu]([O]C(=O)C2)[O]C(=O)C3 [RB-0004540] (cyclo(F[NMehCys](DOTA(Lu)NH(CH2)6NHCOCH2)Y[dW]K[Gly(cBu)])) | < 1
CC(C)[C@@H]1NC(=O)[C@H](CCCCN)N(C)C(=O)[C@@H](Cc2c[nH]c3ccccc23)N(C)C(=O)[C@H](Cc2ccc(O)cc2)NC(=O)[C@H](CCSCC(=O)NCCCCCCNC(=O)CN2CCN3CCN4CCN(CC2)CC(=O)[O][Lu]([O]C(=O)C3)[O]C(=O)C4)N(C)C(=O)[C@H](Cc2ccccc2)NC1=O [RB-0004611] (cyclo(F[NMehCys](DOTA(Lu)NH(CH2)6NHCOCH2)Y[dNMeW][NMeK]V)) | < 1
C[C@@H](O)[C@@H]1NC(=O)[C@H](CC2CCNCC2)NC(=O)[C@@H]([C@@H](C)c2c[nH]c3ccccc23)NC(=O)[C@H](Cc2ccc(O)cc2)NC(=O)[C@H](CCCCNC(=O)C23CCC(CNC(=O)CN4CCN5CCN6CCN(CC4)CC(=O)[O][Lu]([O]C(=O)C5)[O]C(=O)C6)(CC2)CC3)N(C)C(=O)[C@H](Cc2ccccc2)NC1=O [RB-0006558] (cyclo(F[NMeK](X10)Y[dTrp(βS-Me)][Ala(piperidin-4-yl)]T)) | < 1
C[C@@H](O)[C@@H]1NC(=O)[C@H](COCCN)NC(=O)[C@@H](Cc2c[nH]c3ccccc23)NC(=O)[C@H](Cc2ccc(O)cc2)NC(=O)[C@H](CCSCC(=O)NCCCCCCNC(=O)CN2CCN3CCN4CCN(CC2)CC(=O)[O][Lu]([O]C(=O)C3)[O]C(=O)C4)N(C)C(=O)[C@H](Cc2ccccc2)NC1=O [RB-0005899] (cyclo(F[NMehCys](DOTA(Lu)NH(CH2)6NHCOCH2)Y[dW]S(Ethyl(2-NH2))T)) | < 1
C[C@@H](O)[C@@H]1NC(=O)[C@H](CC2CCNCC2)NC(=O)[C@@H]([C@@H](C)c2c[nH]c3ccccc23)NC(=O)[C@H](Cc2ccc(O)cc2)NC(=O)[C@H](CCSCC(=O)NCCOCCOCCOCCNC(=O)CN2CCN3CCN4CCN(CC2)CC(=O)[O][Lu]([O]C(=O)C3)[O]C(=O)C4)N(C)C(=O)[C@H](Cc2ccccc2)NC1=O [RB-0005994] (cyclo(F[NMehCys](X6)Y[dTrp(βS-Me)][Ala(piperidin-4-yl)]T)) | < 1
